Measurements: patent US8383619B2, “Pharmaceutical compounds” (Astex Therapeutics Limited, priority 2008, dated 2013)

Assays:
Experiment in all cases: Anti-proliferative assay (Oncodesign)
Type in all cases: cell-based
HL-60/R10 = settings: Homo sapiens; HL-60/R10 (BLOOD); read-out: IC50 (Concentration of test compound)
Experimental: (§1) The anti-proliferative activities of the parent compounds of the pro-drugs of the invention may be determined by measuring the ability of the compounds to inhibition of cell growth in a number of cell lines such as the human colon cancer cell line HCT116. Inhibition of cell growth is measured using the Alamar Blue assay (Nociari, M. M, Shalev, A., Benias, P., Russo, C. Journal of Immunological Methods 1998, 213, 157-167). The method is based on the ability of viable cells to reduce resazurin to its fluorescent product resorufin. For each proliferation assay cells are plated onto 96 well plates and allowed to recover for 16 hours prior to the addition of inhibitor compounds for a further 72 hours. At the end of the incubation period 10% (v/v) Alamar Blue is added and incubated for a further 6 hours prior to determination of fluorescent product at […]. In the case of the non-proliferating cell assay cells are maintained at confluence for 96 hour prior to the addition of inhibitor compounds for a further 72 hours. The number of viable cells is determined by Alamar Blue assay as before. Cell lines may be obtained from the ECACC (European Collection of cell Cultures).
(§2) The parent compound of the pro-drugs of Examples 1 to 25 i.e. (2,4-dihydroxy-5-isopropyl-phenyl)-[5-(4-methyl-piperazin-1-ylmethyl)-1,3-dihydro-isoindol-2-yl]-methanone, in the form of its L-lactate salt, was tested in anti-proliferative assays against one hundred cell lines by Oncodesign (Dijon, France). The IC50 values against each cell line are set out in the table below and the figures in the table refer to nanomolar concentrations. The compounds were tested up to a concentration of 10,000 nanomolar.

BxPC-3 = settings: Homo sapiens; BxPC-3 (PANCREAS); read-out: IC50 (Concentration of test compound)
Experimental: as §1, §2

A-375-SM = settings: Homo sapiens, A375-SM; A-375-SM (SKIN); read-out: IC50 (Concentration of test compound)
Experimental: as §1, §2

Malme-3M = settings: Homo sapiens; Malme-3M (SKIN); read-out: IC50 (Concentration of test compound)
Experimental: as §1, §2

LB1617-HNSCC = LB1617-HNSCC (HEAD AND NECK); read-out: IC50 (Concentration of test compound)
Experimental: as §1, §2

LB796-BLC = LB796-BLC (URINARY BLADDER); read-out: IC50 (Concentration of test compound)
Experimental: as §1, §2

KG-1 = settings: Homo sapiens; KG-1 (BLOOD); read-out: IC50 (Concentration of test compound)
Experimental: as §1, §2

A-431 = settings: Homo sapiens; A-431 (SKIN); read-out: IC50 (Concentration of test compound)
Experimental: as §1, §2

IGROV-1 = settings: Homo sapiens; IGROV-1 (OVARY); read-out: IC50 (Concentration of test compound)
Experimental: as §1, §2

MC90 = MC90 (BLOOD); read-out: IC50 (Concentration of test compound)
Experimental: as §1, §2

HL-60 = settings: Homo sapiens; HL-60 (BLOOD); read-out: IC50 (Concentration of test compound)
Experimental: as §1, §2

NIH: OVCAR-3/CPT20 = settings: Homo sapiens; NIH: OVCAR-3/CPT20 (OVARY); read-out: IC50 (Concentration of test compound)
Experimental: as §1, §2

LB61-NSCLC = LB61-NSCLC (LUNG); read-out: IC50 (Concentration of test compound)
Experimental: as §1, §2

BB64-RCC = BB64-RCC (KIDNEY); read-out: IC50 (Concentration of test compound)
Experimental: as §1, §2

Capan-2 = settings: Homo sapiens; Capan-2 (PANCREAS); read-out: IC50 (Concentration of test compound)
Experimental: as §1, §2

NCI-H69 = settings: Homo sapiens; NCI-H69 (LUNG); read-out: IC50 (Concentration of test compound)
Experimental: as §1, §2

Caov-3 = settings: Homo sapiens; Caov-3 (OVARY); read-out: IC50 (Concentration of test compound)
Experimental: as §1, §2

LB831-BLC = LB831-BLC (URINARY BLADDER); read-out: IC50 (Concentration of test compound)
Experimental: as §1, §2

LB12-SCLC/OC2 = LB12-SCLC/OC2 (LUNG); read-out: IC50 (Concentration of test compound)
Experimental: as §1, §2

FTC-238 = FTC-238 (THYROID); read-out: IC50 (Concentration of test compound)
Experimental: as §1, §2

A-498 = settings: Homo sapiens, A498; A-498 (KIDNEY); read-out: IC50 (Concentration of test compound)
Experimental: as §1, §2

DLD-1 = settings: Homo sapiens; DLD-1 (COLON); read-out: IC50 (Concentration of test compound)
Experimental: as §1, §2

LNCaP-FGC = LNCaP-FGC (PROSTATE); read-out: IC50 (Concentration of test compound)
Experimental: as §1, §2

KCL-22 = settings: Homo sapiens; KCL-22 (BLOOD); read-out: IC50 (Concentration of test compound)
Experimental: as §1, §2

Hep 3B2.1-7 = Hep 3B2.1-7 (LIVER); read-out: IC50 (Concentration of test compound)
Experimental: as §1, §2

CC(C)c1cc(C(=O)N2Cc3ccc(CN4CCN(C)CC4)cc3C2)c(O)cc1O [(2,4-dihydroxy-5-isopropyl-phenyl)-[5-(4-methyl-piperazin-1-ylmethyl)-1,3-dihydro-isoindol-2-yl]-methanone]
IC50 (HL-60/R10): 847 nM
IC50 (BxPC-3): 196 nM
IC50 (A-375-SM): 340 nM
IC50 (Malme-3M): 157 nM
IC50 (LB1617-HNSCC): 139 nM
IC50 (LB796-BLC): 83 nM
IC50 (KG-1): > 10000 nM
IC50 (A-431): 3800 nM
IC50 (IGROV-1): 109 nM
IC50 (MC90): 93 nM
IC50 (HL-60): 389 nM
IC50 (NIH: OVCAR-3/CPT20): > 10000 nM
IC50 (LB61-NSCLC): > 10000 nM
IC50 (BB64-RCC): > 10000 nM
IC50 (Capan-2): 144 nM
IC50 (NCI-H69): 162 nM
IC50 (Caov-3): 94 nM
IC50 (LB831-BLC): 149 nM
IC50 (LB12-SCLC/OC2): 52 nM
IC50 (FTC-238): 26 nM
IC50 (A-498): 267 nM
IC50 (DLD-1): 56 nM
IC50 (LNCaP-FGC): 78 nM
IC50 (KCL-22): 24 nM
IC50 (Hep 3B2.1-7): 95 nM
